Laboratory results as given in US9556179B2 (BRISTOL-MYERS SQUIBB COMPANY, priority 2012, dated 2017).
pIC50: −log10 of the molar value.

How the values were obtained:
CK1ε = CK1ε (Homo sapiens (Human), UniProt P49674); test: CK1ε kinase assay (Caliper LABCHIP electrophoretic separation of fluoresceinated peptide substrate and product); type: biochemical; details: 200 pM enzyme, 50 μM ATP, 22 hours at room temperature
Protocol: (§1) CK1ε and CK1δ Kinase Assays
(§2) The kinase assay was performed in V-bottom 384-well plates. […] The reaction was incubated at room temperature for 22 hours and terminated by adding 45 μl of 35 mM EDTA to each sample. The reaction mixture was analyzed on the Caliper LABCHIP®3000 (Caliper, Hopkinton, Mass.) by electrophoretic separation of the unphosphorylated substrate and phosphorylated product. […] Compounds were dissolved at 10 mM in dimethylsulfoxide (DMSO) and evaluated at eleven concentrations. IC50 values were derived by non-linear regression analysis.

CK1δ = CK1δ (Homo sapiens (Human), UniProt P48730); test: CK1δ kinase assay (Caliper LABCHIP electrophoretic separation of fluoresceinated peptide substrate and product); type: biochemical; details: 200 pM enzyme, 50 μM ATP, 22 hours at room temperature
Protocol: as §1, §2

Chain of CK1ε (P49674 whole entry): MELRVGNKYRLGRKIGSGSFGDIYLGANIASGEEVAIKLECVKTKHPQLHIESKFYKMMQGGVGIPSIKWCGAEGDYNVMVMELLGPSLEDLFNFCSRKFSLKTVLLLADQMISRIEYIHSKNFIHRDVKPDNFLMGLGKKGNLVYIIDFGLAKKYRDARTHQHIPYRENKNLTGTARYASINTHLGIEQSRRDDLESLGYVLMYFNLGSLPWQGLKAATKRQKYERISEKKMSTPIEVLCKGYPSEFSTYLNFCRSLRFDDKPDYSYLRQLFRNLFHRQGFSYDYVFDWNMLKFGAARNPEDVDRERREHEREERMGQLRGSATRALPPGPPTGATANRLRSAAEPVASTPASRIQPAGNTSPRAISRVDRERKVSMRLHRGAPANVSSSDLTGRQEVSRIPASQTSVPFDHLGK
Chain of CK1δ (P48730 whole entry): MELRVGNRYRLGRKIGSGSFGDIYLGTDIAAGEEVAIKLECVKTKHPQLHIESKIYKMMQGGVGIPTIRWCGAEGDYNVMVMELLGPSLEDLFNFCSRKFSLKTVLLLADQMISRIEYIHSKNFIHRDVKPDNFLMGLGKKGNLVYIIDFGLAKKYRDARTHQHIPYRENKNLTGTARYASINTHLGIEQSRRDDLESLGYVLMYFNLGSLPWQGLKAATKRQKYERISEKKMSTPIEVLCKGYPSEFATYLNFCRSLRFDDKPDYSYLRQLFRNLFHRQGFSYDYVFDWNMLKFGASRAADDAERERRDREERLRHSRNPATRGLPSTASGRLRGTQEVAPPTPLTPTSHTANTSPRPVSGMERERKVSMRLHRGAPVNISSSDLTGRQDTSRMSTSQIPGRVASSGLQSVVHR

Row | SMILES | pIC50 (CK1ε) | pIC50 (CK1δ)
1 | O=C(Nc1cn2nc(-c3c(-c4ccc(F)cc4)ncn3C3CCN(CCN4CCOCC4)CC3)ccc2n1)c1ccnc(F)c1 [Compound 23, 2-fluoro-N-(6-(4-(4-fluorophenyl)-1-(1-(2-morpholinoethyl)piperidin-4-yl)-1H-imidazol-5-yl)imidazo[1,2-b]pyridazin-2-yl)isonicotinamide] | 9.17 | 9.74
2 | Cn1ccnc1CN1CCC(n2cnc(-c3ccc(F)cc3)c2-c2ccc3nc(NC(=O)c4ccnc(F)c4)cn3n2)CC1 [Compound 27, 2-fluoro-N-(6-(4-(4-fluorophenyl)-1-(1-((1-methyl-1H-imidazol-2-yl)methyl)piperidin-4-yl)-1H-imidazol-5-yl)imidazol[1,2-b]pyridazin-2-yl)isonicotinamide] | 8.95 | 9.58
3 | CC(C)CCN1CCC(n2cnc(-c3ccc(F)cc3)c2-c2ccc3nc(NC(=O)c4ccnc(F)c4)cn3n2)CC1 [Compound 32, 2-fluoro-N-(6-(4-(4-fluorophenyl)-1-(1-isopentylpiperidin-4-yl)-1H-imidazol-5-yl)imidazo[1,2-b]pyridazin-2-yl)isonicotinamide] | 7.97 | 9.22
4 | O=C(Nc1cn2nc(-c3c(-c4ccc(F)cc4)ncn3C3CCN(CCCF)CC3)ccc2n1)c1ccnc(F)c1 [Compound 33, 2-fluoro-N-(6-(4-(4-fluorophenyl)-1-(1-(3-fluoropropyl)piperidin-4-yl)-1H-imidazol-5-yl)imidazo[1,2-b]pyridazin-2-yl)isonicotinamide] | 8.72 | 9.42
5 | O=C(Nc1cn2nc(-c3c(-c4ccc(F)cc4)ncn3C3CCN(CC(F)(F)F)CC3)ccc2n1)c1ccnc(F)c1 [Compound 35, 2-fluoro-N-(6-(4-(4-fluorophenyl)-1-(1-(2,2,2-trifluoroethyl)piperidin-4-yl)-1H-imidazol-5-yl)imidazo[1,2-6]pyridazin-2-yl)isonicotinamide] | 8.14 | 9.28
6 | O=C(Nc1cn2nc(-c3c(-c4ccc(F)cc4)ncn3C3CCN(C[C@@H](O)C(F)(F)F)CC3)ccc2n1)c1ccnc(F)c1 [Compound 37, (R)-2-fluoro-N-(6-(4-(4-fluorophenyl)-1-(1-(3,3,3-trifluoro-2-hydroxypropyl)piperidin-4-yl)-1H-imidazol-5-yl)imidazo[1,2-b]pyridazin-2-yl)isonicotinamide] | 8.90 | 9.53
7 | O=C(Nc1cn2nc(-c3c(-c4ccc(F)cc4)ncn3C3CCN(C[C@H](O)C(F)(F)F)CC3)ccc2n1)c1ccnc(F)c1 [Compound 38, (S)-2-fluoro-N-(6-(4-(4-fluorophenyl)-1-(1-(3,3,3-trifluoro-2-hydroxypropyl)piperidin-4-yl)-1H-imidazol-5-yl)imidazo[1,2-b]pyridazin-2-yl)isonicotinamide] | 9.52 | 9.53
8 | O=C(Nc1cn2nc(-c3c(-c4ccc(F)cc4)ncn3C3CCN(C(=O)c4ccon4)CC3)ccc2n1)c1ccnc(F)c1 [Compound 39, 2-fluoro-N-(6-(4-(4-fluorophenyl)-1-(1-(isoxazole-3-carbonyl)piperidin-4-yl)-1H-imidazol-5-yl)imidazo[1,2-b]pyridazin-2-yl)isonicotinamide] | 8.65 | 8.72
9 | NCC(=O)N1CCC(n2cnc(-c3ccc(F)cc3)c2-c2ccc3nc(NC(=O)c4ccnc(F)c4)cn3n2)CC1 [Compound 40, N-(6-(1-(1-(2-aminoacetyl)piperidin-4-yl)-4-(4-fluorophenyl)-1H-imidazol-5-yl)imidazo[1,2-b]pyridazin-2-yl)-2-fluoroisonicotinamide] | 9.01 | 10.07
10 | O=C(Nc1cn2nc(-c3c(-c4ccc(F)cc4)ncn3C3CCN(C(=O)c4cc(C5CC5)on4)CC3)ccc2n1)c1ccnc(F)c1 [Compound 45, N-(6-(1-(1-(5-cyclopropylisoxazole-3-carbonyl)piperidin-4-yl)-4-(4-fluorophenyl)-1H-imidazol-5-yl)imidazo[1,2-b]pyridazin-2-yl)-2-fluoroisonicotinamide] | 7.78 | 8.70
11 | N#CCC(=O)N1CCC(n2cnc(-c3ccc(F)cc3)c2-c2ccc3nc(NC(=O)c4ccnc(F)c4)cn3n2)CC1 [Compound 46, N-(6-(1-(1-(2-cyanoacetyl)piperidin-4-yl)-4-(4-fluorophenyl)-1H-imidazol-5-yl)imidazo[1,2-b]pyridazin-2-yl)-2-fluoroisonicotinamide] | 9.13 | 9.70
12 | O=C(Nc1cn2nc(-c3c(-c4ccc(F)cc4)ncn3C3CCN(C(=O)c4ccno4)CC3)ccc2n1)c1ccnc(F)c1 [Compound 48, 2-fluoro-N-(6-(4-(4-fluorophenyl)-1-(1-(isoxazole-5-carbonyl)piperidin-4-yl)-1H-imidazol-5-yl)imidazo[1,2-b]pyridazin-2-yl)isonicotinamide] | 8.84 | 9.66
13 | O=C(Nc1cn2nc(-c3c(-c4ccc(F)cc4)ncn3C3CCN(C(=O)C4(C(F)(F)F)CCC4)CC3)ccc2n1)c1ccnc(F)c1 [Compound 49, 2-fluoro-N-(6-(4-(4-fluorophenyl)-1-(1-(1-(trifluoromethyl)cyclobutanecarbonyl)piperidin-4-yl)-1H-imidazol-5-yl)imidazo[1,2-b]pyridazin-2-yl)isonicotinamide] | 8.13 | 8.98
14 | O=C(Nc1cn2nc(-c3c(-c4ccc(F)cc4)ncn3C3CCN(C(=O)c4ccsn4)CC3)ccc2n1)c1ccnc(F)c1 [Compound 50, 2-fluoro-N-(6-(4-(4-fluorophenyl)-1-(1-(isothiazole-3-carbonyl)piperidin-4-yl)-1H-imidazol-5-yl)imidazo[1,2-b]pyridazin-2-yl)isonicotinamide] | 8.96 | 9.56

Continued, values first:

Row | pIC50 (CK1ε) | pIC50 (CK1δ) | SMILES
15 | 8.65 | 9.35 | CSCCCN1CCC(n2cnc(-c3ccc(F)cc3)c2-c2ccc3nc(NC(=O)c4ccnc(F)c4)cn3n2)CC1 [Compound 26, 2-fluoro-N-(6-(4-(4-fluorophenyl)-1-(1-(3-(methylthio)propyl)piperidin-4-yl)-1H-imidazol-5-yl)imidazo[1,2-b]pyridazin-2-yl)isonicotinamide]
16 | 8.90 | 9.68 | O=C(Nc1cn2nc(-c3c(-c4ccc(F)cc4)ncn3C3CCN(CC4CC4)CC3)ccc2n1)c1ccnc(F)c1 [Compound 28, N-(6-(1-(1-(cyclopropylmethyl)piperidin-4-yl)-4-(4-fluorophenyl)-1H-imidazol-5-yl)imidazo[1,2-6]pyridazin-2-yl)-2-fluoroisonicotinamide]
17 | 7.95 | 9.13 | O=C(Nc1cn2nc(-c3c(-c4ccc(F)cc4)ncn3C3CCN(CC4C[C@@H]5CC[C@H]4C5)CC3)ccc2n1)c1ccnc(F)c1 (stereo partly drawn) [Compound 31, N-(6-(1-(1-((1S,4R)-bicyclo[2.2.1]heptan-2-ylmethyl)piperidin-4-yl)-4-(4-fluorophenyl)-1H-imidazol-5-yl)imidazo[1,2-6]pyridazin-2-yl)-2-fluoroisonicotinamide]
18 | 7.91 | 9.87 | COCCN1CCC(n2cnc(-c3ccc(F)cc3)c2-c2ccc3nc(NC(=O)c4ccnc(F)c4)cn3n2)CC1 [Compound 34, 2-fluoro-N-(6-(4-(4-fluorophenyl)-1-(1-(2-methoxyethyl)piperidin-4-yl)-1H-imidazol-5-yl)imidazo[1,2-b]pyridazin-2-yl)isonicotinamide]
19 | 8.80 | 9.71 | N#CCCN1CCC(n2cnc(-c3ccc(F)cc3)c2-c2ccc3nc(NC(=O)c4ccnc(F)c4)cn3n2)CC1 [Compound 36, N-(6-(1-(1-(2-cyanoethyl)piperidin-4-yl)-4-(4-fluorophenyl)-1H-imidazol-5-yl)imidazo[1,2-b]pyridazin-2-yl)-2-fluoroisonicotinamide]
20 | 8.53 | 8.55 | O=C(Nc1cn2nc(-c3c(-c4ccc(F)cc4)ncn3C3CCN(C(=O)CC(F)(F)F)CC3)ccc2n1)c1ccnc(F)c1 [Compound 42, 2-fluoro-N-(6-(4-(4-fluorophenyl)-1-(1-(3,3,3-trifluoropropanoyl)piperidin-4-yl)-1H-imidazol-5-yl)imidazo[1,2-b]pyridazin-2-yl)isonicotinamide]
21 | 8.91 | 9.53 | O=C(Nc1cn2nc(-c3c(-c4ccc(F)cc4)ncn3C3CCN(C(=O)c4cscn4)CC3)ccc2n1)c1ccnc(F)c1 [Compound 44, 2-fluoro-N-(6-(4-(4-fluorophenyl)-1-(1-(thiazole-4-carbonyl)piperidin-4-yl)-1H-imidazol-5-yl)imidazo[1,2-b]pyridazin-2-yl)isonicotinamide]
22 | 8.96 | 9.65 | COCC(=O)N1CCC(n2cnc(-c3ccc(F)cc3)c2-c2ccc3nc(NC(=O)c4ccnc(F)c4)cn3n2)CC1 [Compound 47, 2-fluoro-N-(6-(4-(4-fluorophenyl)-1-(1-(2-methoxyacetyl)piperidin-4-yl)-1H-imidazol-5-yl)imidazo[1,2-b]pyridazin-2-yl)isonicotinamide]
23 | 8.59 | 9.62 | Cc1cc(C(=O)N2CCC(n3cnc(-c4ccc(F)cc4)c3-c3ccc4nc(NC(=O)c5ccnc(F)c5)cn4n3)CC2)no1 [Compound 51, 2-fluoro-N-(6-(4-(4-fluorophenyl)-1-(1-(5-methylisoxazole-3-carbonyl)piperidin-4-yl)-1H-imidazol-5-yl)imidazo[1,2-b]pyridazin-2-yl)isonicotinamide]
24 | 8.84 | 9.46 | N#Cc1ccc(C(=O)N2CCC(n3cnc(-c4ccc(F)cc4)c3-c3ccc4nc(NC(=O)c5ccnc(F)c5)cn4n3)CC2)cc1 [Compound 52, N-(6-(1-(1-(4-cyanobenzoyl)piperidin-4-yl)-4-(4-fluorophenyl)-1H-imidazol-5-yl)imidazo[1,2-b]pyridazin-2-yl)-2-fluoroisonicotinamide]
